Measured values: BindingDB's records for doi:10.1016/j.bmcl.2017.11.013 (Csir-Indian Institute of Integrative Medicine, 2017)

Assays:
[1] = Inhibition of human CYP1B1 expressed in MDA-MB-468 cells assessed as potentiation of cisplatin-induced cytotoxicity by measuring cisplatin EC50 at 20 uM (Rvb = 6.70+/- 0.7 uM)
[2] = Inhibition of human CYP1A1 transfected in HEK293 cells assessed as protection against CYP1A1 mediated B[a]P toxicity by measuring B[a]P EC50 at 20 uM by MTT assay (Rvb =1.2+/- 0.3 uM)
[3] = Inhibition of human CYP1B1 expressed in MDA-MB-468 cells assessed as potentiation of cisplatin-induced cytotoxicity by measuring cisplatin EC50 at 6.6 uM (Rvb = 6.70+/- 0.7 uM)

## O=c1cc(-c2ccccc2)oc2c1ccc1ccccc12
[1]
  EC50: 5.1 µM

## CC(C)=CCc1cc(C2CC(=O)c3ccc(O)c(CC=C(C)C)c3O2)ccc1O (stereo not given)
[2]
  EC50: 2.3 µM
[1]
  EC50: 5.2 µM

## O=c1c(O)c(-c2ccc(O)c(O)c2)oc2cc(O)cc(O)c12 [2-(3,4-dihydroxyphenyl)-3,5,7-trihydroxy-chromone;hydrate]
[2]
  EC50: 8.8 µM
[3]
  EC50: 1.1 µM
